Measurements: patent US20240270762A1, “PENICILLIN-BINDING PROTEIN INHIBITORS” (priority 2021, published 2024)
pIC50: −log10 of the molar value. Values after ≈ are worked out from the molar mass of the structure shown. Like-named read-outs stand apart in the source and are kept apart here.

Experiments:
[1] = test system: P. aeruginosa (ΔmexAB-oprM); assay: Broth microdilution MIC in CAMHB; type: cell-based; conditions: Pseudomonas aeruginosa; read-out: MIC P. aeruginosa ΔmexAB-oprM
[2] = test system: N. gonorrhoeae WHO Z; assay: Liquid broth MIC in Fastidious broth; conditions: Neisseria gonorrhoeae
[3] = test system: N. gonorrhoeae WHO Q; assay: Liquid broth MIC in Fastidious broth; conditions: Neisseria gonorrhoeae
Description: Liquid broth-based assays were used for antibacterial testing of PBP inhibitors in Neisseria gonorrhoeae. Briefly, cryo-preserved bacterial cultures of clinical strains were streaked for isolation on Chocolate Agar (72 g/L (2×) GC Agar Base (BD #228950) and 2% (2×) Hemoglobin was autoclaved at 121° C. for 20 minutes to sterilize. Once cooled to ˜50° C. the 2×GC Agar Base and 2× Hemoglobin solutions are combined and 1% IsoVitaleX Enrichment (BD #211876) was added to the solution). Strains were incubated at 36° C. and 5% CO2 to allow growth of colonies, 24 hours before inoculum preparation. 2-fold serial dilutions of test compounds were conducted in a 96 well plate with a final volume of 75 μL per well at 2-fold the final desired concentration in Fastidious broth (Remel #R07664). For preparation of assay inoculum, a direct suspension was prepared by aseptically swabbing 10-15 colonies from agar plates into culture tubes containing 2 mL of fresh sterile saline. After the dilution plates were set up, direct suspensions were then diluted in a cuvette containing sterile saline and the optical density was measured at 600 nm. Inocula were diluted such that 75 μL of this culture in Fastidious broth results in a starting bacterial concentration of 5×10^5 CFU/mL when added to the dilution plates. The plates were incubated for ˜24 hours at 36° C. and 5% CO2.

[4] = target: T1, PBP1a from Acinetobacter baumannii (ATCC 19606) (Acinetobacter baumannii, UniProt A0ABX6CK30); assay: Bocillin-FL fluorescence polarization competition binding, A. baumannii PBP1a; conditions: fluorescence polarization competition binding assay using Bocillin-FL; read-out: A. baumannii PBP1a Potency
T1 sequence (A0ABX6CK30 1-851): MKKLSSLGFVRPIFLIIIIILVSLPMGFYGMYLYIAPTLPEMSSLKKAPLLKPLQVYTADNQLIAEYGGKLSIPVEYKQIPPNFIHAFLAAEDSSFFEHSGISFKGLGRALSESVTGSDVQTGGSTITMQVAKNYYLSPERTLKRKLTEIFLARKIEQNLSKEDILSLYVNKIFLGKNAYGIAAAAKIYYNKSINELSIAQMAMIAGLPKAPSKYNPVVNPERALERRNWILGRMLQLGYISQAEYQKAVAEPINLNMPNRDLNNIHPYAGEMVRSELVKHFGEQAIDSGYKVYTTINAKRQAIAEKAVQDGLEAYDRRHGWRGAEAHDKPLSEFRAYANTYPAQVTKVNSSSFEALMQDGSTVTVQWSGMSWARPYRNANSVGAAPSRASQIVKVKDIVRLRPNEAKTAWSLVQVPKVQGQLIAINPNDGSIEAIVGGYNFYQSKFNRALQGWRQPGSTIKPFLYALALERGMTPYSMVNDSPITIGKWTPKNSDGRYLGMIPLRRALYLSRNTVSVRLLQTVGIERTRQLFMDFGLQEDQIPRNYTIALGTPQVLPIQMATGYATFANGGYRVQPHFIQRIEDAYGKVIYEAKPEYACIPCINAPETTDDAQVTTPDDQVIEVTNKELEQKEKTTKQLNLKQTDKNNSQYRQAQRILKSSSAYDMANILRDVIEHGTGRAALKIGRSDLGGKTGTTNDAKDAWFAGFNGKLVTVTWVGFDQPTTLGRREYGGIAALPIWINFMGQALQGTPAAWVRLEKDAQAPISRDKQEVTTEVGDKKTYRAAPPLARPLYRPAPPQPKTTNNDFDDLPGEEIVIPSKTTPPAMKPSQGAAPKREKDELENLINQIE
Procedure, shortened: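 Purified PBP was preincubated with inhibitor (E. coli PBP3 1.5 μM, 30 min; P. aeruginosa PBP3 0.75 μM, A. baumannii PBP3 0.2 μM and PBP1a 1 μM, 15 min), then Bocillin-FL (0.1 μM; 0.05 μM for PBP1a) added and FP read up to 60 min. EC50 = 50% loss of bound probe.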

[5] = read-out: Minimum Inhibitory Concentration (MIC), N. gonorrhoeae WHO Z
[6] = read-out: Minimum Inhibitory Concentration (MIC), N. gonorrhoeae WHO Q
[7] = read-out: Minimum Inhibitory Concentration, WHO Z
[8] = read-out: Minimum Inhibitory Concentration, WHO Q

| Structure (SMILES) | MIC [1] | MIC [2, 5] | MIC [3, 6] | pIC50 [4] | MIC [2, 7] | MIC [3, 8] |
| --- | --- | --- | --- | --- | --- | --- |
| CS(=O)(=O)N1CCN(C(=O)N[C@H](C(=O)N[C@H]2Cc3cccc(C(=O)O)c3OB2O)c2ccc(P(=O)(O)O)cc2)C1=O (single isomer, unassigned) [Example 5] | 32 to 64 µg/mL (≈ 52.4 to 105 µM) | < 1 µg/mL | < 1 µg/mL | – | – | – |
| CS(=O)(=O)N1CCN(C(=O)N[C@@H](C(=O)N[C@H]2Cc3cccc(C(=O)O)c3OB2O)c2ccc(P(=O)(O)O)cc2)C1=O (single isomer, unassigned) [Example 6] | 8 to 16 µg/mL (≈ 13.1 to 26.2 µM) | < 1 µg/mL | < 1 µg/mL | – | – | – |
| CCN1CCN(C(=O)NC(C(=O)N[C@H]2Cc3cccc(C(=O)O)c3OB2O)c2ccc(P(=O)(O)O)cc2F)C(=O)C1=O (stereo partly drawn) [Example 1, (3R)-3-(2-(4-ethyl-2,3-dioxopiperazine-1-carboxamido)-2-(2-fluoro-4-phosphonophenyl)acetamido)-2-hydroxy-3,4-dihydro-2H-benzo[e][1,2]oxaborinine-8-carboxylic acid] | 32 to 64 µg/mL (≈ 52.8 to 106 µM) | < 1 µg/mL | < 1 µg/mL | – | – | – |
| CCN1CCN(C(=O)NC(C(=O)N[C@H]2Cc3cccc(C(=O)O)c3OB2O)c2cc(P(=O)(O)O)ccc2F)C(=O)C1=O (stereo partly drawn) [Example 2, (3R)-3-(2-(4-ethyl-2,3-dioxopiperazine-1-carboxamido)-2-(2-fluoro-5-phosphonophenyl)acetamido)-2-hydroxy-3,4-dihydro-2H-benzo[e][1,2]oxaborinine-8-carboxylic acid] | 8 to 16 µg/mL (≈ 13.2 to 26.4 µM) | 4 to 8 µg/mL (≈ 6.6 to 13.2 µM) | 4 to 8 µg/mL (≈ 6.6 to 13.2 µM) | – | – | – |
| NCCN1CCN(C(=O)NC(C(=O)N[C@H]2Cc3cccc(C(=O)O)c3OB2O)c2ccc(P(=O)(O)O)cc2)C(=O)C1=O (stereo partly drawn) [Example 3, (3R)-3-(2-(4-(2-aminoethyl)-2,3-dioxopiperazine-1-carboxamido)-2-(4-phosphonophenyl)acetamido)-2-hydroxy-3,4-dihydro-2H-benzo[e][1,2]oxaborinine-8-carboxylic acid] | 32 to 64 µg/mL (≈ 53 to 106 µM) | 1 to 2 µg/mL (≈ 1.66 to 3.32 µM) | 1 to 2 µg/mL (≈ 1.66 to 3.32 µM) | – | – | – |
| O=C(O)c1cccc2c1OB(O)[C@@H](NC(=O)C(NC(=O)N1CCN(CC(F)(F)F)C(=O)C1=O)c1ccc(P(=O)(O)O)cc1)C2 (stereo partly drawn) [Example 4, (3R)-3-(2-(2,3-dioxo-4-(2,2,2-trifluoroethyl)piperazine-1-carboxamido)-2-(4-phosphonophenyl)acetamido)-2-hydroxy-3,4-dihydro-2H-benzo[e][1,2]oxaborinine-8-carboxylic acid] | 32 to 64 µg/mL (≈ 49.8 to 99.7 µM) | 1 to 2 µg/mL (≈ 1.56 to 3.11 µM) | 1 to 2 µg/mL (≈ 1.56 to 3.11 µM) | – | – | – |
| O=C(NCCCN1CCN(C(=O)N[C@@H](C(=O)N[C@H]2Cc3ccc(F)c(C(=O)O)c3OB2O)c2cc(F)c(O)c(O)c2Cl)C(=O)C1=O)c1cccc(O)c1Cl [Example 303, (R)-3-((R)-2-(4-(3-(2-chloro-3-hydroxybenzamido)propyl)-2,3-dioxopiperazine-1-carboxamido)-2-(2-chloro-5-fluoro-3,4-dihydroxyphenyl)acetamido)-7-fluoro-2-hydroxy-3,4-dihydro-2H-benzo[e][1,2]oxaborinine-8-carboxylic acid] | – | – | – | < 3.60 | 16 to 32 µg/mL (≈ 20.1 to 40.3 µM) | > 64 µg/mL |
| O=C(NCCCN1CCN(C(=O)NC(C(=O)N[C@H]2Cc3ccc(F)c(C(=O)O)c3OB2O)c2cc(F)c(O)c(O)c2Cl)C(=O)C1=O)c1ccc(O)c(F)c1 (stereo partly drawn) [Example 304, (3R)-3-(2-(2-chloro-5-fluoro-3,4-dihydroxyphenyl)-2-(4-(3-(3-fluoro-4-hydroxybenzamido)propyl)-2,3-dioxopiperazine-1-carboxamido)acetamido)-7-fluoro-2-hydroxy-3,4-dihydro-2H-benzo[e][1,2]oxaborinine-8-carboxylic acid] | – | – | – | < 3.60 | > 64 µg/mL | > 64 µg/mL |
| O=C(NCCCN1CCN(C(=O)NC(C(=O)N[C@H]2Cc3ccc(F)c(C(=O)O)c3OB2O)c2cc(F)c(O)c(O)c2Cl)C(=O)C1=O)c1ccc(O)c(Cl)c1 (stereo partly drawn) [Example 305, (3R)-3-(2-(4-(3-(3-chloro-4-hydroxybenzamido)propyl)-2,3-dioxopiperazine-1-carboxamido)-2-(2-chloro-5-fluoro-3,4-dihydroxyphenyl)acetamido)-7-fluoro-2-hydroxy-3,4-dihydro-2H-benzo[e][1,2]oxaborinine-8-carboxylic acid] | – | – | – | < 3.60 | > 64 µg/mL | > 64 µg/mL |
| O=C(NCCCN1CCN(C(=O)NC(C(=O)N[C@H]2Cc3ccc(F)c(C(=O)O)c3OB2O)c2cc(F)c(O)c(O)c2Cl)C(=O)C1=O)c1ccc(O)c(F)c1F (stereo partly drawn) [Example 306, (3R)-3-(2-(2-chloro-5-fluoro-3,4-dihydroxyphenyl)-2-(4-(3-(2,3-difluoro-4-hydroxybenzamido)propyl)-2,3-dioxopiperazine-1-carboxamido)acetamido)-7-fluoro-2-hydroxy-3,4-dihydro-2H-benzo[e][1,2]oxaborinine-8-carboxylic acid] | – | – | – | < 3.60 | > 64 µg/mL | > 64 µg/mL |
| O=C(NCCCN1CCN(C(=O)NC(C(=O)N[C@H]2Cc3ccc(F)c(C(=O)O)c3OB2O)c2cc(F)c(O)c(O)c2Cl)C(=O)C1=O)c1ccc(O)cc1O (stereo partly drawn) [Example 307, (3R)-3-(2-(2-chloro-5-fluoro-3,4-dihydroxyphenyl)-2-(4-(3-(2,4-dihydroxybenzamido)propyl)-2,3-dioxopiperazine-1-carboxamido)acetamido)-7-fluoro-2-hydroxy-3,4-dihydro-2H-benzo[e][1,2]oxaborinine-8-carboxylic acid] | – | – | – | < 3.60 | > 64 µg/mL | > 64 µg/mL |
